Assay [1] deals with Escherichia coli. The experiment in a line: Antibacterial activity against Escherichia coli K-12 by microbroth dilution method. The format is functional. On the technique in general: Broth dilution looks for growth in wells or tubes with falling amounts of substance.
Assay [2] concerns Escherichia coli. The experiment in a line: Antibacterial activity against Escherichia coli harboring TolC deletion mutant by microbroth dilution method. The format is functional. The note with it: Escherichia coli; read-out: MIC.
In assay [3] the test system is Streptococcus pyogenes. Description: Antibacterial activity against Streptococcus pyogenes ATCC 700294 by microbroth dilution method. The conditions noted are these: Streptococcus pyogenes, ATCC 700294; read-out: MIC. The format is functional.
For assay [4], the system named is Acinetobacter baumannii. The experiment in a line: Antibacterial activity against Acinetobacter baumannii ATCC 19606 by microbroth dilution method. The format is functional, ATCC 19606 = CIP 70.34 = JCM 6841. The conditions noted are these: Acinetobacter baumannii, ATCC 19606 = CIP 70.34 = JCM 6841; read-out: MIC.
The subject of assay [5] is Enterococcus faecalis. Description: Antibacterial activity against Enterococcus faecalis ATCC 33186 by microbroth dilution method. The conditions noted are these: Enterococcus faecalis, ATCC 33186; read-out: MIC. The format is functional.
Assay [6] has as its system Burkholderia cepacia. The experiment in a line: Antibacterial activity against Burkholderia cepacia ATCC 25416 by microbroth dilution method. Format: functional.
Assay [7] has as its system Mycobacterium tuberculosis. Description: Antitubercular activity against Mycobacterium tuberculosis H37Rv by microbroth dilution method. The format is functional. The note with it: Mycobacterium tuberculosis, H37Rv; read-out: MIC.
In assay [8] the test system is Streptococcus pneumoniae. The experiment in a line: Antibacterial activity against Streptococcus pneumoniae R6 by microbroth dilution method. The note with it: Streptococcus pneumoniae, R6; read-out: MIC. The format is functional.
Assay [9] relates to Bacillus anthracis. Description: Antibacterial activity against Bacillus anthracis Sterne 34F2 by microbroth dilution method. The format is functional. The conditions noted are these: Bacillus anthracis, Sterne 34F2; read-out: MIC.
For assay [10], the system named is Pseudomonas aeruginosa. The experiment in a line: Antibacterial activity against Pseudomonas aeruginosa PAO1 by microbroth dilution method. The format is functional.
Assay [11] concerns Proteus mirabilis. Description: Antibacterial activity against Proteus mirabilis ATCC 25933 by microbroth dilution method. Format: functional.
Assay [12] relates to Bacillus subtilis. Description: Antibacterial activity against Bacillus subtilis ATCC 23857 by microbroth dilution method. Format: functional. The conditions noted are these: Bacillus subtilis, ATCC 23857; read-out: MIC.
Assay [13] has as its system Proteus vulgaris. The experiment in a line: Antibacterial activity against Proteus vulgaris ATCC 33420 by microbroth dilution method. Format: functional.
In assay [14] the test system is Staphylococcus aureus. Description: Antibacterial activity against methicillin-sensitive Staphylococcus aureus ATCC 29213 by microbroth dilution method. The format is functional. The note with it: Staphylococcus aureus, ATCC 29213; read-out: MIC.
In assay [15] the test system is Staphylococcus aureus. Description: Antibacterial activity against methicillin-resistant Staphylococcus aureus NRS70 by microbroth dilution method. The format is functional. The conditions noted are these: Staphylococcus aureus, NRS70; read-out: MIC.
Assay [16] concerns Klebsiella pneumoniae. The experiment in a line: Antibacterial activity against Klebsiella pneumoniae ATCC 33495 by microbroth dilution method. Format: functional.

Molecules are shown by their SMILES. Values after ≈ are worked out from the molar mass of the structure shown.

As a reminder, the MIC is the smallest concentration in the dilution series that meets the test's criterion for growth inhibition.

For `COc1ccc2cc1Oc1cc(ccc1OC)CCC(NC(=O)CCc1ccccc1)CCCC2` (stereo unspecified), the minimum inhibitory concentration (MIC) in assay [1], in assay [2], in assay [3], in assay [4], in [5] and in assay [6] was greater than 100 µg/mL in each case. Moreover, the MIC in assay [7], in assay [8], in assay [9], in assay [10], in assay [11] and in assay [12] was greater than 100 µg/mL in each case. The MIC in assay [13], in [14], in [15] and in assay [16] was greater than 100 µg/mL each time.
Regarding `COc1ccc2cc1Oc1cc(ccc1OC)CCC(OC(=O)Nc1ccc(F)cc1)CCCC2` (stereo unspecified), the MIC is greater than 100 µg/mL in assay [1]; greater than 100 µg/mL in assay [2]; greater than 100 µg/mL in assay [3]; greater than 100 µg/mL in assay [4]; 50 µg/mL (≈ 104 µM) in assay [5]; greater than 100 µg/mL in [6]. Also, the MIC in assay [7], in assay [8], in assay [9], in assay [10], in assay [11] and in assay [12] was greater than 100 µg/mL throughout. Besides, the MIC in [13] is greater than 100 µg/mL; in [14], greater than 100 µg/mL; in [15], 25 µg/mL (≈ 52.1 µM); in assay [16], greater than 100 µg/mL.
With `COc1ccc2cc1Oc1cc(ccc1OC)CCC(NCCCCc1ccccc1)CCCC2` (stereo unspecified), the MIC in assay [1] was greater than 100 µg/mL; in assay [2], 12.5 µg/mL (≈ 26.4 µM); in [3], 12.5 µg/mL (≈ 26.4 µM); in assay [4], 100 µg/mL (≈ 211 µM); in [5], 25 µg/mL (≈ 52.8 µM); in [6] it was greater than 100 µg/mL. The MIC in assay [7] is 25 µg/mL (≈ 52.8 µM); in assay [8] it was 50 µg/mL (≈ 106 µM); in [9] it was 50 µg/mL (≈ 106 µM); in [10], greater than 100 µg/mL; in assay [11], greater than 100 µg/mL; in assay [12] it was 12.5 µg/mL (≈ 26.4 µM). Besides, the MIC in assay [13] was greater than 100 µg/mL; in [14], 25 µg/mL (≈ 52.8 µM); in assay [15] it was 25 µg/mL (≈ 52.8 µM); in [16], greater than 100 µg/mL.
`COc1ccc2cc1Oc1cc(ccc1OC)CCC(NCCc1ccccc1F)CCCC2` (stereo unspecified): the MIC in assay [1] was greater than 100 µg/mL; in assay [2] it was 25 µg/mL (≈ 53.9 µM); in assay [3] it was 50 µg/mL (≈ 108 µM); in assay [4], 100 µg/mL (≈ 216 µM); in assay [5], 25 µg/mL (≈ 53.9 µM); in [6] it was greater than 100 µg/mL. In addition, the MIC in assay [7] is 25 µg/mL (≈ 53.9 µM); in [8] it was 50 µg/mL (≈ 108 µM); in assay [9], 50 µg/mL (≈ 108 µM); in [10] it was greater than 100 µg/mL; in assay [11] it was greater than 100 µg/mL; in [12], 12.5 µg/mL (≈ 27 µM). The MIC in [13] is greater than 100 µg/mL; in [14] it was 50 µg/mL (≈ 108 µM); in [15], 25 µg/mL (≈ 53.9 µM); in [16], greater than 100 µg/mL.
Regarding `COc1ccc2cc1Oc1cc(ccc1OC)CCC(OC(=O)CCc1ccccc1)CCCC2` (stereo unspecified), the MIC in [1], in assay [2], in assay [3], in [4], in assay [5] and in assay [6] was greater than 100 µg/mL throughout. In addition, the MIC in assay [7], in assay [8], in assay [9], in assay [10], in assay [11] and in assay [12] was greater than 100 µg/mL throughout. Also, the MIC in assay [13], in assay [14], in [15] and in assay [16] was greater than 100 µg/mL in each case.
Turning to `COc1ccc2cc1Oc1cc(ccc1OC)CCC(OC(=O)NCc1ccccc1)CCCC2` (stereo unspecified), the MIC in assay [1], in assay [2], in assay [3], in assay [4], in [5] and in assay [6] was greater than 100 µg/mL each time. Besides, the minimum inhibitory concentration (MIC) in assay [7], in [8], in assay [9], in assay [10], in assay [11] and in [12] was greater than 100 µg/mL each time. Moreover, the MIC in assay [13], in [14], in assay [15] and in [16] was greater than 100 µg/mL throughout.
As for `COc1ccc2cc1Oc1cc(ccc1OC)CCC(N1CCN(C)CC1)CCCC2` (stereo unspecified), the minimum inhibitory concentration (MIC) in assay [1] is greater than 100 µg/mL; in assay [2], 50 µg/mL (≈ 118 µM); in assay [3], greater than 100 µg/mL; in [4], 100 µg/mL (≈ 236 µM); in assay [5], 100 µg/mL (≈ 236 µM); in assay [6] it was greater than 100 µg/mL. In addition, the MIC was 50 µg/mL (≈ 118 µM) in assay [7]; 100 µg/mL (≈ 236 µM) in assay [8]; 100 µg/mL (≈ 236 µM) in [9]; greater than 100 µg/mL in assay [10]; greater than 100 µg/mL in assay [11]; 50 µg/mL (≈ 118 µM) in [12]. The MIC in [13] is greater than 100 µg/mL; in assay [14] it was 100 µg/mL (≈ 236 µM); in [15] it was 50 µg/mL (≈ 118 µM); in assay [16], greater than 100 µg/mL.
For the compound `CCNC1CCCCc2ccc(OC)c(c2)Oc2cc(ccc2OC)CC1` (stereo unspecified), the MIC in assay [1], in assay [2], in assay [3], in assay [4], in assay [5] and in assay [6] was greater than 100 µg/mL throughout. The MIC in assay [7] is 100 µg/mL (≈ 271 µM); in assay [8] it was greater than 100 µg/mL; in assay [9] it was greater than 100 µg/mL; in assay [10], greater than 100 µg/mL; in [11], greater than 100 µg/mL; in assay [12] it was greater than 100 µg/mL. Moreover, the minimum inhibitory concentration (MIC) in assay [13], in assay [14], in [15] and in assay [16] was greater than 100 µg/mL throughout.
Consider `COc1ccc2cc1Oc1cc(ccc1OC)CCC(OS(=O)(=O)c1ccc(C)cc1)CCCC2` (stereo unspecified), for which the MIC in assay [1] was greater than 100 µg/mL; in [2] it was greater than 100 µg/mL; in assay [3], greater than 100 µg/mL; in assay [4] it was greater than 100 µg/mL; in [5], 100 µg/mL (≈ 201 µM); in assay [6], greater than 100 µg/mL. Moreover, the MIC in assay [7], in assay [8], in [9], in [10], in assay [11] and in assay [12] was greater than 100 µg/mL each time. In addition, the MIC in assay [13] was greater than 100 µg/mL; in [14], greater than 100 µg/mL; in assay [15] it was 100 µg/mL (≈ 201 µM); in assay [16], greater than 100 µg/mL.
In the case of `CCN(CC)C1CCCCc2ccc(OC)c(c2)Oc2cc(ccc2OC)CC1` (stereo unspecified), the minimal inhibitory concentration (MIC) in assay [1], in [2], in [3], in [4], in [5] and in [6] was greater than 100 µg/mL each time. Further, the MIC in assay [7] is 100 µg/mL (≈ 252 µM); in assay [8], greater than 100 µg/mL; in assay [9], greater than 100 µg/mL; in assay [10] it was greater than 100 µg/mL; in assay [11] it was greater than 100 µg/mL; in [12] it was greater than 100 µg/mL. Further, the minimum inhibitory concentration (MIC) in assay [13], in [14], in assay [15] and in assay [16] was greater than 100 µg/mL in each case.
Regarding `COc1ccc2cc1Oc1cc(ccc1OC)CCC(Nc1ccc(Cl)cc1)CCCC2` (stereo unspecified), the MIC in assay [1], in assay [2], in assay [3], in assay [4], in assay [5] and in assay [6] was greater than 100 µg/mL in each case. The MIC in assay [7], in [8], in assay [9], in [10], in assay [11] and in assay [12] was greater than 100 µg/mL in each case. Besides, the MIC in assay [13], in [14], in assay [15] and in assay [16] was greater than 100 µg/mL in each case.

(Values after ChEMBL document CHEMBL4477227, “Synthesis and antibacterial evaluation of macrocyclic diarylheptanoid derivatives” (Bioorg Med Chem Lett, 2016).)
